# Measurements from the NIST ThermoML archive (doi:10.1021/je200609g).
# ± gives the expanded uncertainty stated by the source.
# Details: 101.33 kPa, Liquid; for speed of sound: Sing-around technique in a fixed-path interferometer; for mass density: Vibrating tube method
compound,measurement,setting,value
CCn1cc[n+](C)c1.O=S(=O)([O-])C(F)(F)F [1-ethyl-3-methylimidazolium trifluoromethanesulfonate],speed of sound,278.15 K,1482.2 ± 2.1 m/s
same,mass density,278.15 K,1400.51 ± 1.8 kg/m3
same,speed of sound,288.15 K,1458.3 ± 2.1 m/s
same,mass density,288.15 K,1392.02 ± 1.8 kg/m3
same,speed of sound,298.15 K,1435.6 ± 2.1 m/s
same,mass density,298.15 K,1383.58 ± 1.7 kg/m3
same,speed of sound,308.15 K,1413.2 ± 2.1 m/s
same,mass density,308.15 K,1375.19 ± 1.7 kg/m3
same,speed of sound,318.15 K,1391.3 ± 2.1 m/s
same,mass density,318.15 K,1366.86 ± 1.7 kg/m3
same,speed of sound,328.15 K,1369.7 ± 2.1 m/s
same,mass density,328.15 K,1358.59 ± 1.7 kg/m3
CC(C)O [propan-2-ol],speed of sound,278.15 K,1208.5 ± 0.74 m/s
same,mass density,278.15 K,797.34 ± 0.12 kg/m3
same,speed of sound,288.15 K,1173.1 ± 0.73 m/s
same,mass density,288.15 K,789.22 ± 0.13 kg/m3
same,speed of sound,298.15 K,1138.2 ± 0.72 m/s
same,mass density,298.15 K,780.89 ± 0.13 kg/m3
same,speed of sound,308.15 K,1103.2 ± 0.71 m/s
same,mass density,308.15 K,772.28 ± 0.13 kg/m3
same,speed of sound,318.15 K,1068.1 ± 0.7 m/s
same,mass density,318.15 K,763.32 ± 0.14 kg/m3
same,speed of sound,328.15 K,1032.6 ± 0.69 m/s
same,mass density,328.15 K,753.95 ± 0.14 kg/m3
C1CCOC1 [tetrahydrofuran],speed of sound,278.15 K,1375 ± 0.87 m/s
same,mass density,278.15 K,903.71 ± 0.09 kg/m3
same,speed of sound,288.15 K,1325.8 ± 0.85 m/s
same,mass density,288.15 K,892.92 ± 0.09 kg/m3
same,speed of sound,298.15 K,1277.4 ± 0.83 m/s
same,mass density,298.15 K,882.02 ± 0.1 kg/m3
same,speed of sound,308.15 K,1229.6 ± 0.81 m/s
same,mass density,308.15 K,871 ± 0.1 kg/m3
same,speed of sound,318.15 K,1182.4 ± 0.8 m/s
same,mass density,318.15 K,859.84 ± 0.11 kg/m3
